Reference: ChEMBL document CHEMBL5046289, “Targeting the S2 Subsite Enables the Structure-Based Discovery of Novel Highly Selective Factor XIa Inhibitors” (J Med Chem, 2022)
The source made the active and inactive calls. The calls are words filed in the database; no cut-off is given here.

Assays:
Mus musculus [1] = assay: Antithrombotic activity in C57BL/6J mouse model of FeCl3-induced carotid artery thrombosis assessed as time of occlusion pretreated at 6.5 mg/kg for 10 mins followed by FeCl3 addition for 3 mins and measured after 30 mins; assay type: functional, organism-based
Homo sapiens [2] = organism: Homo sapiens; assay: Selectivity index, ratio of IC50 for plasma kallikrein (unknown origin) to IC50 for coagulation factor XIa (unknown origin)
[3] = Acute toxicity in ICR male mouse assessed as effect on weight loss at 50 to 100 mg/kg, iv as single dose for 14 days; assay type: organism-based; conditions: in vivo, 336 h, dose 50-100 mg/kg, time 14 day
Plasma [4] = assay: Anticoagulant activity in mouse platelet-poor plasma assessed as increase in activated partial thromboplastin time at 22 ug/ml incubated for 3 mins by coagulometer analysis; assay type: functional, cell-free; conditions: dose 22.0 µg/ml
Homo sapiens [5] = organism: Homo sapiens; assay: Selectivity index, ratio of IC50 for thrombin (unknown origin) to IC50 for coagulation factor XIa (unknown origin)
[6] = molecular target: T1, Coagulation factor VII (Homo sapiens) (UniProt P08709); assay: Inhibition of coagulation factor VIIa (unknown origin) assessed as chromogenic substrate using chromozyme t-PA as substrate at 1 mM incubated for 1 hr by spectrophotometer based microplate reader method
T1 sequence (whole entry): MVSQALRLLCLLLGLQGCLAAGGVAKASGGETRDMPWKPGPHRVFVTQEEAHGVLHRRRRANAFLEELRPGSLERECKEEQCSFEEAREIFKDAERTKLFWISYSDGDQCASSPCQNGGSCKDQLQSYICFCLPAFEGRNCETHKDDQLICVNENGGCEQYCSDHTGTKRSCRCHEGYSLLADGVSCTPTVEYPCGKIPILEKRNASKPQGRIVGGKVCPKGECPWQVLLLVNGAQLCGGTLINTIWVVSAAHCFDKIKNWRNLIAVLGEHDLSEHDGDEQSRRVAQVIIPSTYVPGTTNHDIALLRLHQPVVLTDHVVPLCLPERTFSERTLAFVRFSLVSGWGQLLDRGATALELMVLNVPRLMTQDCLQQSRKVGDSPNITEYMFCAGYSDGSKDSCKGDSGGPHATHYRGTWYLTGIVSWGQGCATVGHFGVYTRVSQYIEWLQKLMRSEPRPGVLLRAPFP

[7] = Toxicity in C57BL/6J mouse assessed as bleeding risk at 19.5 to 39 mg/kg, iv measured after 15 mins by tail transection assay; assay type: organism-based; conditions: in vivo, 0.25 h, dose 19.5-39 mg/kg
[8] = Acute toxicity in ICR mouse assessed as histological change in heart at 50 to 100 mg/kg, iv as single dose for 14 days by H and E staining method; assay type: organism-based; conditions: in vivo, 336 h, dose 50-100 mg/kg, time 14 day
[9] = MRT(0 to t) in Sprague-Dawley rat at 10 mg/kg, iv after 0.083 to 24 hrs by LC-MS/MS analysis; assay type: ADME, organism-based; conditions: in vivo, time 0.083-24 hrs
[10] = AUC(0 to t) in Sprague-Dawley rat at 10 mg/kg, iv after 0.083 to 24 hrs by LC-MS/MS analysis; assay type: ADME, organism-based; parameters: route intravenous, time upper 24 hrs, time lower 0.083 hrs, dose 10 mg/kg; conditions: in vivo
Coagulation factor X = Coagulation factor X (Homo sapiens, UniProt P00742); assay: Inhibition of coagulation factor Xa (unknown origin) assessed as chromogenic substrate using CS-11(22) as substrate incubated for 1 hr by spectrophotometer based microplate reader method
Sequence of Coagulation factor X (P00742 41-179 limits assumed): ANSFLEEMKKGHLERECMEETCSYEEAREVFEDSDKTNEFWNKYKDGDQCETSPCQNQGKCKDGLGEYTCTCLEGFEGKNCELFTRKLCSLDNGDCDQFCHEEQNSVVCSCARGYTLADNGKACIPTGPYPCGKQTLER
Sequence of Coagulation factor X (P00742 235-488 limits assumed): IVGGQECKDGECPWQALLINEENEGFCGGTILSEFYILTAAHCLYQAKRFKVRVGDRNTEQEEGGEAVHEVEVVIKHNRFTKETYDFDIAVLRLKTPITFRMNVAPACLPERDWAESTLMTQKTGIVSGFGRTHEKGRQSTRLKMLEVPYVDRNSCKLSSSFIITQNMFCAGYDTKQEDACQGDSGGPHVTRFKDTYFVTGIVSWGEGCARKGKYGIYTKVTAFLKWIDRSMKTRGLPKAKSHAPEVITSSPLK

Plasma [11] = assay: Anticoagulant activity in mouse platelet-poor plasma assessed as increase in prothrombin time at 3.8 to 210 ug/ml incubated for 3 mins by coagulometer analysis; assay type: functional, cell-free; conditions: dose 3.8-210 µg/ml
Prothrombin = Prothrombin (Homo sapiens, UniProt P00734); assay: Inhibition of thrombin (unknown origin) assessed as chromogenic substrate using CS-10(38) as substrate incubated for 1 hr by spectrophotometer based microplate reader method
[12] = molecular target: Coagulation factor IX (Homo sapiens) (UniProt P00740); assay: Inhibition of coagulation factor IXa (unknown origin) assessed as chromogenic substrate using ADG299 as substrate at 1 mM incubated for 1 hr by spectrophotometer based microplate reader method
Sequence of Coagulation factor IX (Homo sapiens) (P00740 47-191 limits assumed): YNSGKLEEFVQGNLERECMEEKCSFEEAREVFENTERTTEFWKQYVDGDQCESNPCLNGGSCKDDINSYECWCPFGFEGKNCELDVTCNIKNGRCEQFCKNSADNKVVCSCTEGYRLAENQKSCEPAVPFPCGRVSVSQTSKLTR
Sequence of Coagulation factor IX (Homo sapiens) (P00740 227-461 limits assumed): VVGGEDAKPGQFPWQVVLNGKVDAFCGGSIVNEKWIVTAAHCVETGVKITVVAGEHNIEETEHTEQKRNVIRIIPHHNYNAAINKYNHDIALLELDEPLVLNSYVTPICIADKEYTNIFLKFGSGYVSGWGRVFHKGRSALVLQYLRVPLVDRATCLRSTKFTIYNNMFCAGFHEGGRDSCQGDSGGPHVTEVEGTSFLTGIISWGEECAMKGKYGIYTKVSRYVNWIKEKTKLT

[13] = Acute toxicity in ICR mouse assessed as histological change in lung at 50 to 100 mg/kg, iv as single dose for 14 days by H and E staining method; assay type: organism-based; conditions: in vivo, 336 h, dose 50-100 mg/kg, time 14 day
[14] = Acute toxicity in ICR mouse assessed as histological change in liver at 50 to 100 mg/kg, iv as single dose for 14 days by H and E staining method; assay type: organism-based; conditions: in vivo, 336 h, dose 50-100 mg/kg, time 14 day
Mus musculus [15] = assay: Antithrombotic activity against FeCl3-induced carotid artery thrombosis C57BL/6J mouse model assessed as prolongation of occlusion time pretreated at 19.5 mg/kg, iv tail vein injection for 10 mins followed by FeCl3 addition for 3 mins and measured after 30 mins; assay type: functional, organism-based; conditions: time 43.0 min
[16] = molecular target: Serine protease 1 (Homo sapiens) (UniProt P07477); assay: Inhibition of trypsin (unknown origin) assessed as chromogenic substrate using CS-11(22) as substrate at 1 mM incubated for 1 hr by spectrophotometer based microplate reader method
Sequence of Serine protease 1 (Homo sapiens) (P07477 whole entry): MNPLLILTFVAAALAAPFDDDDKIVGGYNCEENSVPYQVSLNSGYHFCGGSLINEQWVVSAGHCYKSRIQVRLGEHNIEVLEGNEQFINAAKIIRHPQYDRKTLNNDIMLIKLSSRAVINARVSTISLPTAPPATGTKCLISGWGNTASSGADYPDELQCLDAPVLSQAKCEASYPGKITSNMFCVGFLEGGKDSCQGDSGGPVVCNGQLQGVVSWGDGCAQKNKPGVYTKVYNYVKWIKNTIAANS

[17] = AUC(0 to infinity) in Sprague-Dawley rat at 10 mg/kg, iv after 0.083 to 24 hrs by LC-MS/MS analysis; assay type: ADME, organism-based; parameters: route intravenous, dose 10 mg/kg, time upper 24 hrs, time lower 0.083 hrs; conditions: in vivo
[18] = Half life in Sprague-Dawley rat at 10 mg/kg, iv after 0.083 to 24 hrs by LC-MS/MS analysis; assay type: ADME, organism-based; conditions: in vivo, time 0.083-24 hrs
[19] = Clearance in Sprague-Dawley rat at 10 mg/kg, iv after 0.083 to 24 hrs by LC-MS/MS analysis; assay type: ADME, organism-based; conditions: in vivo, time 0.083-24 hrs
[20] = Toxicity in C57BL/6J mouse assessed as bleeding risk at 60 to 100 mg/kg, iv measured after 15 mins by tail transection assay; assay type: organism-based; conditions: in vivo, 0.25 h, dose 60-100 mg/kg
Homo sapiens [21] = organism: Homo sapiens; assay: Selectivity index, ratio of IC50 for coagulation factor XIIa (unknown origin) to IC50 for coagulation factor XIa (unknown origin)
[22] = Acute toxicity in ICR mouse assessed as histological change in kidney at 50 to 100 mg/kg, iv as single dose for 14 days by H and E staining method; assay type: organism-based; conditions: in vivo, 336 h, dose 50-100 mg/kg, time 14 day
[23] = Toxicity in C57BL/6J mouse assessed as bleeding risk at 35 mg/kg, iv measured after 15 mins by tail transection assay; assay type: organism-based; conditions: in vivo, 0.25 h
[24] = Acute toxicity in ICR female mouse assessed as effect on weight loss at 50 to 100 mg/kg, iv as single dose for 14 days; assay type: organism-based; conditions: in vivo, 336 h, dose 50-100 mg/kg, time 14 day
Coagulation factor XI = Coagulation factor XI (Homo sapiens, UniProt P03951); assay: Inhibition of coagulation factor XIa (unknown origin) assessed as chromogenic substrate hydrolysis using CS-21(66) as substrate incubated for 1 hr by spectrophotometer based microplate reader method
Sequence of Coagulation factor XI (P03951 19-387 limits assumed): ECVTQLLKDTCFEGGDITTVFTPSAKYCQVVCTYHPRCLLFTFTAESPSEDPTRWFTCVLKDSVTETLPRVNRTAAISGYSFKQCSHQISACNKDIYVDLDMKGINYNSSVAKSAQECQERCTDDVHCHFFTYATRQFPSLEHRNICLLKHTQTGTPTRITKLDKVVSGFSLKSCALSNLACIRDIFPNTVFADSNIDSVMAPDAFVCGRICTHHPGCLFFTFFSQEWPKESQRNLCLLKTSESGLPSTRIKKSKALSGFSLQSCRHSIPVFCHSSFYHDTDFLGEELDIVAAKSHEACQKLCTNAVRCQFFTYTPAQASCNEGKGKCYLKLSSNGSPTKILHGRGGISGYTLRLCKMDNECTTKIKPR
Sequence of Coagulation factor XI (P03951 388-625 limits assumed): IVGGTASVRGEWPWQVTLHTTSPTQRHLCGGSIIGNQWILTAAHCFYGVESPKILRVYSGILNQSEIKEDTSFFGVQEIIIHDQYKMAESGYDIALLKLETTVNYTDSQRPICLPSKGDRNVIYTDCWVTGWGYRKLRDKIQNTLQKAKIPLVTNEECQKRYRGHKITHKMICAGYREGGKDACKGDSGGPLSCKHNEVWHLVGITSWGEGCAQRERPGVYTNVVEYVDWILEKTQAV

[25] = Toxicity in C57BL/6J mouse assessed as bleeding risk at 20 mg/kg, iv measured after 15 mins by tail transection assay; assay type: organism-based; conditions: in vivo, 0.25 h
Homo sapiens [26] = organism: Homo sapiens; assay: Selectivity index, ratio of IC50 for coagulation factor IXa (unknown origin) to IC50 for coagulation factor XIa (unknown origin)
Homo sapiens [27] = organism: Homo sapiens; assay: Selectivity index, ratio of IC50 for coagulation factor Xa (unknown origin) to IC50 for coagulation factor XIa (unknown origin)

With `O=C(/C=C/c1cc(Cl)ccc1-n1cnnn1)N[C@@H](CC(=O)N1CCN(c2ccccc2)CC1)C(=O)Nc1ccc(C(=O)O)cc1` the Activity (Mus musculus [1]) was “inactive”, the Ratio IC50 (Homo sapiens [2]) was 1960 and the Activity [3] was “Non-Toxic”. For the same compound, the Activity (Plasma [4]) was “Active”, the Ratio IC50 (Homo sapiens [5]) was > 5000 and the inhibition [6] was “inactive”. For the same compound, the Activity [7] was “Non-Toxic”, the Activity [8] was “Non-Toxic” and the MRT last [9] was 19.2 min. For the same compound, the AUC(0-t) [10] was 18300 ng·h/mL, the IC50 (Coagulation factor X) was 340 µM and the Activity (Plasma [11]) was “inactive”. The IC50 (Prothrombin) was 460 µM, the inhibition [12] was “inactive” and the Activity [13] was “Non-Toxic”. For the same compound, the Activity [14] was “Non-Toxic”, the Activity (Mus musculus [15]) was “Active” and the inhibition [16] was “inactive”. For the same compound, the AUC(0-inf) [17] was 18400 ng·h/mL, the half-life [18] was 75.6 min and the clearance [19] was 9.22 mL/min/kg. For the same compound, the Activity [20] was “Non-Toxic”, the Ratio IC50 (Homo sapiens [21]) was > 5000 and the Activity [22] was “Non-Toxic”. For the same compound, the Activity [23] was “Non-Toxic”, the Activity [24] was “Non-Toxic” and the IC50 (Coagulation factor XI) was 0.0142 µM. The Activity [25] was “Non-Toxic”, the Ratio IC50 (Homo sapiens [26]) was > 5000 and the Ratio IC50 (Homo sapiens [27]) was > 5000.
